pIC50, pKd: −log10 of the molar value.
Tests used:
[1] = biological target: T1, Histone-lysine N-methyltransferase EHMT2 (Homo sapiens, UniProt Q96KQ7); assay: (§1) Inhibition of recombinant G9a catalytic SET domain (913 to 1193 residues) (unknown origin) expressed in Escherichia coli BL21 (DE3) codon plus RIL assessed as inhibition of methylation activity using biotin-labeled H3 (1 to 25 residues) as substrate and [3H]-SAM after 2 hrs by scintillation proximity assay
T1 sequence (Q96KQ7 whole entry): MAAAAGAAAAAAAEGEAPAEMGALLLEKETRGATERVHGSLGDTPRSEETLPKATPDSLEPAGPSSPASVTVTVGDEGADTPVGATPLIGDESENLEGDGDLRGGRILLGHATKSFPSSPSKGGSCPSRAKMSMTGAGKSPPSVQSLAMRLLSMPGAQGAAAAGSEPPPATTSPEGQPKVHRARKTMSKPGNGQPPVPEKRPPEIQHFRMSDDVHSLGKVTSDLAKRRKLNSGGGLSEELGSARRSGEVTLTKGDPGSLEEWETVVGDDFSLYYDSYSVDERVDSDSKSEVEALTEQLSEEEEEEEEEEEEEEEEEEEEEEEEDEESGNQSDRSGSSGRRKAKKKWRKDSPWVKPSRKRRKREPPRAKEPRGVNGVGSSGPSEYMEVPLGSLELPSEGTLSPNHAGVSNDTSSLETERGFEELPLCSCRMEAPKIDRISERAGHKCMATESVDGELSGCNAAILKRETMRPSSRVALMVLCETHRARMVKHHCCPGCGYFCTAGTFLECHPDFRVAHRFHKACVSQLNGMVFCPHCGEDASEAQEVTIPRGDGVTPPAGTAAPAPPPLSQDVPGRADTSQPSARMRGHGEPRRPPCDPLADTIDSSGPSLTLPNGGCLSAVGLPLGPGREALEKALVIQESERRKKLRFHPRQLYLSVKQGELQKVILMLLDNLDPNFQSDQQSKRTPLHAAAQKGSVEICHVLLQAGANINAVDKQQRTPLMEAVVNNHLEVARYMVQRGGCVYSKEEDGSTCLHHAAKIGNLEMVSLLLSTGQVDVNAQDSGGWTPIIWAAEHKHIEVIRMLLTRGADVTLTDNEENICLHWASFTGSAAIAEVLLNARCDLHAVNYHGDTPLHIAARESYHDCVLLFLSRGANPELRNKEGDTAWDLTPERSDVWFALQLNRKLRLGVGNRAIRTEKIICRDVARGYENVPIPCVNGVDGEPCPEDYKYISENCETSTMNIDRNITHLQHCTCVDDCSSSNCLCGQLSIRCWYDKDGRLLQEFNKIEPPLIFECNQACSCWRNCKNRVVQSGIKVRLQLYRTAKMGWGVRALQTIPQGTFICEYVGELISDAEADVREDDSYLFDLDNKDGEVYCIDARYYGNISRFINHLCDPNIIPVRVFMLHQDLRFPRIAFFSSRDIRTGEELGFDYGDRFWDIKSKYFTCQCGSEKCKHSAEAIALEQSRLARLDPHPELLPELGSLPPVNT

[2] = biological target: T2, Histone-lysine N-methyltransferase EHMT1 (Homo sapiens, UniProt Q9H9B1); assay: as §1, with “GLP” for “G9a”, “(982” for “(913”, “1266” for “1193”
T2 sequence (Q9H9B1 whole entry): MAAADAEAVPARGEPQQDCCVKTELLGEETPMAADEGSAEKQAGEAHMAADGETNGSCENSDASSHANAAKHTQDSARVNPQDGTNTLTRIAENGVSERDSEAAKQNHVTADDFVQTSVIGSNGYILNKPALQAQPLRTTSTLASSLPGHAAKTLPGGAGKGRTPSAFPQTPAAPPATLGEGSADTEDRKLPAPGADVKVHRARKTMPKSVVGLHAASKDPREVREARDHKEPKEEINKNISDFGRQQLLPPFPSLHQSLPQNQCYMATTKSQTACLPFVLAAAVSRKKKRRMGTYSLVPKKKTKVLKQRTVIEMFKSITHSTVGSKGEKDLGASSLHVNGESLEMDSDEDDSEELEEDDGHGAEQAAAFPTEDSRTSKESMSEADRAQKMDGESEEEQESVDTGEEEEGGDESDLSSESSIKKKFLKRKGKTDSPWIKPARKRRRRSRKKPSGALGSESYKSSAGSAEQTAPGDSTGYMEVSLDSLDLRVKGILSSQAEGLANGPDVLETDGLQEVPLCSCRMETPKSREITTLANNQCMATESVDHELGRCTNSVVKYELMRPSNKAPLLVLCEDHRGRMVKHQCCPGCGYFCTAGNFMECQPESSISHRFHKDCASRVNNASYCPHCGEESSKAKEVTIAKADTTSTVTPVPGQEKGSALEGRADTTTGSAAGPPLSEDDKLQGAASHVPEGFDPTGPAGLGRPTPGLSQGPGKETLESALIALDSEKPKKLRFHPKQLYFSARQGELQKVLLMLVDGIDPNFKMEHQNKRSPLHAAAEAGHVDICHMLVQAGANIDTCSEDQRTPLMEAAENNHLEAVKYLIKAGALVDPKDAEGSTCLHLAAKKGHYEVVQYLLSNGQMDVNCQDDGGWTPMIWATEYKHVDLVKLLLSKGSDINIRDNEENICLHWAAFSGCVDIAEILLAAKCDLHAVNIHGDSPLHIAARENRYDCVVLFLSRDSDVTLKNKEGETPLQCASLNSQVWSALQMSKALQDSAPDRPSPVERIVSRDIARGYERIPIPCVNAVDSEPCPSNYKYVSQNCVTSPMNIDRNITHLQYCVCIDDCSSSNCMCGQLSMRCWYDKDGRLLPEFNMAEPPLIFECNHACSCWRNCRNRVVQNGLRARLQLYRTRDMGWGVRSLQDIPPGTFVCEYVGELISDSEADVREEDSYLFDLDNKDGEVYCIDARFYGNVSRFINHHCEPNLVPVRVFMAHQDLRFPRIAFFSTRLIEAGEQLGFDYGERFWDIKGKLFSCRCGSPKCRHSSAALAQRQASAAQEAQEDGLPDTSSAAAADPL

[3] = biological target: T1, Histone-lysine N-methyltransferase EHMT2; assay: Binding affinity to recombinant G9a catalytic SET domain (913 to 1193 residues) (unknown origin) expressed in Escherichia coli BL21 (DE3) codon plus RIL in presence of SAM by isothermal titration calorimetry
[4] = biological target: T2, Histone-lysine N-methyltransferase EHMT1; assay: Binding affinity to recombinant GLP catalytic SET domain (982 to 1266 residues) (unknown origin) expressed in Escherichia coli BL21 (DE3) codon plus RIL in presence of SAM by isothermal titration calorimetry

SMILES | pIC50 [1] | pIC50 [2] | pKd [3] | pKd [4]
COc1cc2nc(N3CCOCC3)nc(NC3CCN(C)CC3)c2cc1C | 5.39 | 6.09 | – | –
CCN1CCC(Nc2nc(N3CCOCC3)nc3cc(OC)c(OC)cc23)CC1 | 6.49 | 7.59 | – | –
CCCCCCCNc1nc(NC2CCN(C)CC2)c2cc(OC)c(OC)cc2n1 | 6.12 | 7.36 | – | –
COc1cc2nc(C3CCCCC3)nc(NC3CCN(C)CC3)c2cc1OC | 6.36 | 7.47 | – | –
CCOc1cc2c(NC3CCN(C)CC3)nc(N3CCOCC3)nc2cc1OC | < 5.30 | < 5.30 | – | –
COc1cc2c(NC3CCN(C)CC3)nc(N3CCOCC3)nc2cc1F | < 5.30 | < 5.30 | – | –
CCCCNc1nc(NC2CCN(C)CC2)c2cc(OC)c(OC)cc2n1 | 6.36 | 7.46 | – | –
COc1cc2nc(N3CCC(F)(F)CC3)nc(NC3CCN(C)CC3)c2cc1OC | 5.97 | 7.01 | – | –
CCOc1cc2nc(N3CCOCC3)nc(NC3CCN(C)CC3)c2cc1OC | < 5.30 | < 6.00 | – | –
CCCCCCNc1nc(NC2CCN(C)CC2)c2cc(OC)c(OC)cc2n1 | 6.00 | 8.15 | 6.21 | 7.34
COc1cc2nc(N3CCOCC3)nc(NC3CCN(C)CC3)c2cc1OC(C)C | < 5.30 | < 5.30 | – | –
COc1cc2nc(N3CCOCC3)nc(NC3CCN(C)CC3)c2cc1F | 5.43 | 5.91 | – | –
COc1cc2c(NC3CCN(C)CC3)nc(N3CCOCC3)nc2cc1C | 5.94 | 7.54 | – | –
CCCCN(C)c1nc(NC2CCN(C)CC2)c2cc(OC)c(OC)cc2n1 | 6.39 | 7.46 | – | –
COc1cc2nc(C3CCOCC3)nc(NC3CCN(C)CC3)c2cc1OC | 5.72 | 6.47 | – | –
CCCCCN(C)c1nc(NC2CCN(C)CC2)c2cc(OC)c(OC)cc2n1 | 6.51 | 7.55 | – | –
COc1cc2c(NC3CCN(C)CC3)nc(N3CCOCC3)nc2cc1OC(C)C | < 5.30 | < 5.30 | – | –
CCCCCNc1nc(NC2CCN(C)CC2)c2cc(OC)c(OC)cc2n1 | 6.47 | 7.20 | – | –

Continued by rising pIC50 [2], values first:

pIC50 [1] | pIC50 [2] | SMILES | pKd [3] | pKd [4]
6.51 | 7.74 | CCCCCCN(C)c1nc(NC2CCN(C)CC2)c2cc(OC)c(OC)cc2n1 | – | –
6.72 | 7.80 | COc1cc2nc(N3CCCCCC3)nc(NC3CCN(C)CC3)c2cc1OC | – | –
6.58 | 7.82 | COc1cc2nc(N3CCOCC3)nc(NC3CCN(C(C)C)CC3)c2cc1OC | – | –
6.36 | 7.89 | COc1cc2nc(N3CCOCC3)nc(NC3CCN(C)CC3)c2cc1OC | 6.35 | 7.40
6.50 | 7.92 | COc1cc2nc(N3CCCC3)nc(NC3CCN(C)CC3)c2cc1OC | – | –
6.50 | 7.92 | COc1cc2nc(N3CCOCC3)nc(NC3CCN(C4CC4)CC3)c2cc1OC | – | –
7.51 | 7.92 | COc1cc2nc(N3CCCCC3)nc(NC3CCN(C)CC3)c2cc1OC | – | –
6.65 | 7.96 | CCCN1CCC(Nc2nc(N3CCOCC3)nc3cc(OC)c(OC)cc23)CC1 | – | –
– | 8.40 | COc1cc2nc(N3CCCN(C)CC3)nc(NC3CCN(C)CC3)c2cc1OC | – | –
